Tested on: T1, endogenous COS-1 cell Na+, K+-ATPase
T1 construct: gene ATP1A1; endogenous enzyme in COS-1 plasma membranes
Assay: high-affinity phase of biphasic ouabain inhibition of Na+,K+-ATPase activity in plasma membranes
Assay type: biochemical

Q: For `C[C@@H]1O[C@@H](O[C@H]2C[C@@H](O)[C@]3(CO)[C@H]4[C@H](O)C[C@]5(C)[C@@H](C6=CC(=O)OC6)CC[C@]5(O)[C@@H]4CC[C@]3(O)C2)[C@H](O)[C@H](O)[C@H]1O` [ouabain], which IC50 is on record?
A: ~1 µM
